In brackets after ≈: the same amount, converted by molar mass. Read-outs that look alike come from different tables or passages of the source.
Columns and labels:
Type in all cases: cell-based
P. aeruginosa = test: Biofilm growth assay (spreading biofilm on semi-solid agar); parameters: P. aeruginosa (n=10): unit not given here; settings: for P. aeruginosa (n=10): Table 6, inhibitory concentration in the biofilm growth assay, n = number of isolates tested; for IC85: Pseudomonas aeruginosa
Burkholderia cepacia = test: Biofilm growth assay, multiple isolates; settings: Table 6; inhibitory concentration in the biofilm growth assay; n = number of isolates tested
Description: (§1) The biofilm growth assay was carried out to measure swarming or biofilm spreading on semi-solid agar media in round plates (for example, 100 × 15 mm), also referred to as Petri dishes. For E. coli, the plates contained LB medium with 0.6% agar and 0.5% glucose. P. aeruginosa plates were made with M8 agar supplemented with 0.2% glucose, 100 µM CaCl2, 1 mM MgSO4, and 0.5% Casamino acids. The agar plates of this assay consisted of 0.4% to 0.7% agar (Bacto or Noble agar), although other media may also be used as described in the literature and known to those skilled in the art. Test compounds at the desired concentration were added to the cooled, autoclaved media. Portions of the media were then poured into the plates (20 mL/plate), and the plates allowed to dry at room temperature for approximately 3 to 4 hours. Alternatively, however, plates may be dried in a laminar flow hood for approximately fifteen to twenty minutes. Overnight cultures were grown in a 37°C shaker in LB (E. coli) or TSB (P. aeruginosa). Plates were inoculated by placing 5 µL of the appropriate overnight culture in the centers of the plates. The plates then were incubated overnight at 37°C. The area of the zone of spreading bacteria was then measured and replicates are averaged. Percent inhibition was calculated as 100 × (area without compound - area with compound)/(area without compound). An active compound was considered that which reduces the area of the spreading biofilm compared to negative controls by greater than or equal to 85%. The values shown in Table 1 are the concentrations of compounds (µg/ml) tested in the biofilm growth assay that reduce the area of the spreading biofilm compared to negative controls by greater than or equal to 85% unless noted differently in Table 1. A > ("greater than" symbol) as used in Table 1 is well understood to those skilled in the art as an indication that the listed concentration was not effective at this concentration.
(§2) Table 6, below, lists the inhibitory concentrations of select compounds and antibiotics in the biofilm growth assay against various gram-negative bacterial biofilms. "N" means the number of isolates of bacteria tested. The biofilm growth assay procedure detailed in Example I, above, was followed. Burkholderia cepacia used media consisting of M9 salts, 100 µM CaCl2, 1 mM MgS04, and 0.7% citrate in 0.4% Noble agar. Salmonella spp. used media consisting of Nutrient Broth with 0.5% glucose in 0.5% Noble agar.

Salmonella spp. = test: Biofilm growth assay, multiple isolates; settings: Table 6; inhibitory concentration in the biofilm growth assay; n = number of isolates tested
Description: as §1, §2

E. coli = test: Biofilm growth assay (spreading biofilm on semi-solid agar); parameters: E. coli (n=10): unit: ug/mL; settings: for IC85: Escherichia coli
How it was run: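 Spreading (swarming) biofilm on semi-solid agar: E. coli on LB with 0.6% agar and 0.5% glucose; P. aeruginosa on M8 agar with 0.2% glucose, 100 µM CaCl2, 1 mM MgSO4, 0.5% Casamino acids. Compound in medium; 5 µL overnight culture spotted centrally, 37°C overnight. Value: concentration (µg/ml) giving ≥85% reduction in spread area versus negative control.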

[1] = Table 4, concentration that reduces the area of the spreading biofilm by >= 85%, read-out: P. aeruginosa
[2] = Table 4, concentration that reduces the area of the spreading biofilm by >= 85%, read-out: E. coli
[3] = read-out: P. aeruginosa (µg/ml)
[4] = Table 5, concentration that reduces the area of the spreading biofilm by >= 85%, read-out: P. aeruginosa
[5] = Table 5, concentration that reduces the area of the spreading biofilm by >= 85%, read-out: E. coli
[6] = Table 1, concentration that reduces the area of the spreading biofilm vs negative controls by >= 85%, > means not effective at this concentration, read-out: P. aeruginosa
[7] = Table 1, concentration that reduces the area of the spreading biofilm vs negative controls by >= 85%, > means not effective at this concentration, read-out: E. coli

## CC[C@H]1OC(=O)[C@H](C)[C@@H](O[C@H]2C[C@@](C)(OC)[C@@H](O)[C@H](C)O2)[C@H](C)[C@@H](O[C@@H]2O[C@H](C)C[C@H](N(C)C)[C@H]2O)[C@](C)(O)C[C@@H](C)CN(C)[C@H](C)[C@@H](O)[C@]1(C)O [Azithromycin, azithromycin]
P. aeruginosa
  P. aeruginosa (n=10): > 16
Burkholderia cepacia
  inhibitory concentration: > 16
Salmonella spp.
  inhibitory concentration in biofilm growth assay: > 16

## CC(C)(O/N=C(\C(=O)N[C@@H]1C(=O)N2C(C(=O)[O-])=C(C[n+]3ccccc3)CS[C@H]12)c1csc(N)n1)C(=O)O [Ceftazidime, ceftazidime, reference compound]
P. aeruginosa
  P. aeruginosa (n=10): 4
E. coli; Table 6, inhibitory concentration in the biofilm growth assay, n = number of isolates tested
  E. coli (n=10): 0.25
Burkholderia cepacia
  inhibitory concentration: > 8
Salmonella spp.
  inhibitory concentration in biofilm growth assay: 0.5

## CC1(C)CC[C@]2(c3n[nH]c(O)c3CCN)CC[C@]3(C)C(=CCC4[C@@]5(C)Cc6c(n[nH]c6N)C(C)(C)C5CC[C@]43C)C2C1 (stereo partly drawn) [Compound 84, 3-((4aS,6aS,6bR,13aR)-12-Amino-2,2,6a,6b,9,9,13a-heptamethyl-2,3,4,4a,5,6,6a,6b,7,8,8a,9,11,13,13a,13b,14,15b-octadecahydro-1H-chryseno[1,2-f]indazol-4a-yl)-4-(2-aminoethyl)-1H-pyrazol-5-ol]
P. aeruginosa; [1]
  IC85: 0.125 µg/mL (≈ 0.217 µM)
E. coli; [2]
  IC85: 0.5 µg/mL (≈ 0.87 µM)

## CN(C)CCc1c([C@]23CCC(C)(C)CC2C2=CCC4[C@@]5(C)Cc6c(n[nH]c6N)C(C)(C)C5CC[C@@]4(C)[C@]2(C)CC3)n[nH]c1O (stereo partly drawn) [Compound 85, 3-((4aS,6aS,6bR,13aR)-12-Amino-2,2,6a,6b,9,9,13a-heptamethyl-2,3,4,4a,5,6,6a,6b,7,8,8a,9,11,13,13a,13b,14,15b-octadecahydro-1H-chryseno[1,2-f]indazol-4a-yl)-4-(2-(dimethylamino)ethyl)-1H-pyrazol-5-ol]
P. aeruginosa; [1]
  IC85: 0.5 µg/mL (≈ 0.829 µM)
E. coli; [2]
  IC85: 1 µg/mL (≈ 1.66 µM)

## CNCCc1c([C@]23CCC(C)(C)CC2C2=CCC4[C@@]5(C)Cc6c(n[nH]c6N)C(C)(C)C5CC[C@@]4(C)[C@]2(C)CC3)n[nH]c1O (stereo partly drawn) [Compound 86, 3-((4aS,6aS,6bR,13aR)-12-Amino-2,2,6a,6b,9,9,13a-heptamethyl-2,3,4,4a,5,6,6a,6b,7,8,8a,9,11,13,13a,13b,14,15b-octadecahydro-1H-chryseno[1,2-f]indazol-4a-yl)-4-(2-(methylamino)ethyl)-1H-pyrazol-5-ol]
P. aeruginosa; [1]
  IC85: 0.5 µg/mL (≈ 0.849 µM)
E. coli; [2]
  IC85: 2 µg/mL (≈ 3.4 µM)

## CC1(C)CC[C@]2(c3n[nH]c(O)c3CCNC(N)=O)CC[C@]3(C)C(=CCC4[C@@]5(C)Cc6c(n[nH]c6N)C(C)(C)C5CC[C@]43C)C2C1 (stereo partly drawn) [Compound 87, 1-(2-(3-((4aS,6aS,6bR,13aR)-12-Amino-2,2,6a,6b,9,9,13a-heptamethyl-2,3,4,4a,5,6,6a,6b,7,8,8a,9,11,13,13a,13b,14,15b-octadecahydro-1H-chryseno[1,2-f]indazol-4a-yl)-5-hydroxy-1H-pyrazol-4-yl)ethyl)urea]
P. aeruginosa; [1]
  IC85: 0.5 µg/mL (≈ 0.809 µM)
E. coli; [2]
  IC85: 1 µg/mL (≈ 1.62 µM)

## CC1(C)CC[C@]2(c3n[nH]c(O)c3N3CCOCC3)CC[C@]3(C)C(=CCC4[C@@]5(C)Cc6c(n[nH]c6N)C(C)(C)C5CC[C@]43C)C2C1 (stereo partly drawn) [Compound 88, 3-((4aS,6aS,6bR,13aR)-12-Amino-2,2,6a,6b,9,9,13a-heptamethyl-2,3,4,4a,5,6,6a,6b,7,8,8a,9,11,13,13a,13b,14,15b-octadecahydro-1H-chryseno[1,2-f]indazol-4a-yl)-4-morpholino-1H-pyrazol-5-ol]
P. aeruginosa; [1]
  IC85: 0.25 µg/mL (≈ 0.405 µM)
E. coli; [2]
  IC85: 0.5 µg/mL (≈ 0.811 µM)

## CN1CCN(c2c([C@]34CCC(C)(C)CC3C3=CCC5[C@@]6(C)Cc7c(n[nH]c7N)C(C)(C)C6CC[C@@]5(C)[C@]3(C)CC4)n[nH]c2O)CC1 (stereo partly drawn) [Compound 89, 3-((4aS,6aS,6bR,13aR)-12-Amino-2,2,6a,6b,9,9,13a-heptamethyl-2,3,4,4a,5,6,6a,6b,7,8,8a,9,11,13,13a,13b,14,15b-octadecahydro-1H-chryseno[1,2-f]indazol-4a-yl)-4-(4-methylpiperazin-1-yl)-1H-pyrazol-5-ol]
P. aeruginosa; [3]
  IC85: 1 µg/mL (≈ 1.59 µM)
E. coli; read-out: E. coli (µg/ml)
  IC85: 1 µg/mL (≈ 1.59 µM)

## CC1(C)CC[C@]2(c3n[nH]c(O)c3N3CCNCC3)CC[C@]3(C)C(=CCC4[C@@]5(C)Cc6c(n[nH]c6N)C(C)(C)C5CC[C@]43C)C2C1 (stereo partly drawn) [Compound 90, 3-((4aS,6aS,6bR,13aR)-12-Amino-2,2,6a,6b,9,9,13a-heptamethyl-2,3,4,4a,5,6,6a,6b,7,8,8a,9,11,13,13a,13b,14,15b-octadecahydro-1H-chryseno[1,2-f]indazol-4a-yl)-4-(piperazin-1-yl)-1H-pyrazol-5-ol]
P. aeruginosa; [3]
  IC85: 0.5 µg/mL (≈ 0.812 µM)
E. coli; read-out: E. coli (µg/ml)
  IC85: 1 µg/mL (≈ 1.62 µM)

## CC1(C)CC[C@]2(C(=O)Sc3nnc(N)[nH]3)CC[C@]3(C)C(=C(c4cccnc4)CC4[C@@]5(C)Cc6c(n[nH]c6N)C(C)(C)[C@@H]5CC[C@]43C)[C@@H]2C1 (stereo partly drawn) [Compound 91, (4aS,6aS,6bR,8aR,13aR,15bS)-S-5-Amino-4H-1,2,4-triazol-3-yl 12-amino-2,2,6a,6b,9,9,13a-heptamethyl-15-(pyridin-3-yl)-2,3,4,4a,5,6,6a,6b,7,8,8a,9,11,13,13a,13b,14,15b-octadecahydro-1H-chryseno[1,2-f]indazole-4a-carbothioate]
P. aeruginosa; [4]
  IC85: 1 µg/mL (≈ 1.49 µM)
E. coli; [5]
  IC85: 1 µg/mL (≈ 1.49 µM)

## CC1(C)CC[C@]2(c3n[nH]c(O)c3CCN)CC[C@]3(C)C(=C(c4ccoc4CN4CCOCC4)CC4[C@@]5(C)Cc6c(n[nH]c6N)C(C)(C)[C@@H]5CC[C@]43C)[C@@H]2C1 (stereo partly drawn) [Compound 92, 3-((4aS,6aS,6bR,8aR,13aR,15bS)-12-Amino-2,2,6a,6b,9,9,13a-heptamethyl-15-(2-(morpholinomethyl)furan-3-yl)-2,3,4,4a,5,6,6a,6b,7,8,8a,9,11,13,13a,13b,14,15b-octadecahydro-1H-chryseno[1,2-f]indazol-4a-yl)-4-(2-aminoethyl)-1H-pyrazol-5-ol]
P. aeruginosa; [4]
  IC85: 0.5 µg/mL (≈ 0.676 µM)
E. coli; [5]
  IC85: 2 µg/mL (≈ 2.7 µM)

## CC1(C)CC[C@]2(C(=O)O)CC[C@]3(C)C(=CCC4[C@@]5(C)Cc6c[nH]nc6C(C)(C)C5CC[C@]43C)C2C1 (stereo partly shown) [D]
P. aeruginosa; [6]
  IC85: 1 µg/mL (≈ 2.09 µM)
E. coli; [7]
  IC85: 4 µg/mL (≈ 8.36 µM)

## Cn1cc2c(n1)C(C)(C)C1CC[C@]3(C)C(CC=C4C5CC(C)(C)CC[C@]5(C(=O)O)CC[C@]43C)[C@@]1(C)C2 (stereo partly shown) [E]
P. aeruginosa; [6]
  IC85: 2 µg/mL (≈ 4.06 µM)
E. coli; [7]
  IC85: > 16 µg/mL

## CC1(C)CC[C@]2(C(=O)O)CC[C@]3(C)C(=CCC4[C@@]5(C)Cc6c(n[nH]c6Br)C(C)(C)C5CC[C@]43C)C2C1 (stereo partly shown) [H]
P. aeruginosa; [6]
  IC85: 8 µg/mL (≈ 14.3 µM)
E. coli; [7]
  IC85: > 8 µg/mL

## CC1(C)CC[C@]2(C(=O)O)CC[C@]3(C)C(=CC[C@@H]4[C@@]5(C)Cc6c(noc6N)C(C)(C)[C@@H]5CC[C@]43C)[C@@H]2C1 [K]
P. aeruginosa; [6]
  IC85: > 8 µg/mL
E. coli; [7]
  IC85: > 8 µg/mL

## CC1(C)CC[C@]2(C(=O)O)CC[C@]3(C)[C@H](C(=O)C=C4[C@@]5(C)C=C(C#N)C(=O)C(C)(C)[C@@H]5CC[C@]43C)[C@@H]2C1 [L]
P. aeruginosa; [6]
  IC85: > 16 µg/mL
E. coli; [7]
  IC85: > 16 µg/mL

## C=C(C)[C@@H]1CC[C@]2(C)CC[C@]3(C)[C@H](CC[C@@H]4[C@@]5(C)CC[C@H](O)C(C)(C)[C@@H]5CC[C@]43C)[C@@H]12 [Lupeol, reference compound]
P. aeruginosa; [6]
  IC85: > 16 µg/mL
E. coli; [7]
  IC85: > 8 µg/mL

## COC(=O)[C@]12CCC(C)(C)CC1C1=CCC3[C@@]4(C)CC[C@H](O)C(C)(C)C4CC[C@@]3(C)[C@]1(C)CC2 (stereo partly shown) [Oleanolic acid methyl ester, reference compound]
P. aeruginosa; [6]
  IC85: > 16 µg/mL
E. coli; [7]
  IC85: > 16 µg/mL

## C[C@H]1[C@H](C)CC[C@]2(C(=O)O)CC[C@]3(C)C(=CC[C@@H]4[C@@]5(C)CC[C@H](O)C(C)(C)[C@@H]5CC[C@]43C)[C@H]12 [Ursolic acid, reference compound]
P. aeruginosa; [6]
  IC85: 8 µg/mL (≈ 17.5 µM)
E. coli; [7]
  IC85: 8 µg/mL (≈ 17.5 µM)

## C[C@H]1[C@H](C)CC[C@]2(CO)CC[C@]3(C)C(=CC[C@@H]4[C@@]5(C)CC[C@H](O)C(C)(C)[C@@H]5CC[C@]43C)[C@H]12 [Uvaol, reference compound]
P. aeruginosa; [6]
  IC85: > 128 µg/mL
E. coli; [7]
  IC85: > 8 µg/mL

— patent EP2712863B1, “Novel inhibitors of bacterial biofilms and related methods” (Sequoia Sciences, Inc., priority 2012, dated 2014)
